According to PMC4811675 (Cancer cell, 2016):
Where a SMILES comes first, the peptide text is derived from it. The star is where a group is joined. Cbz = O=C(OCc1ccccc1)*

Tests used:
[1] = tested on: c-Myc; assay: c-Myc transcription, turnover and NEDD4 expression in MCF-7 cells; assay type: cell-based, human
[2] = tested on: MMTV-PyMT mammary tumors; assay: MMTV-PyMT mammary tumor model; assay type: in vivo, mice
[3] = tested on: c-Myc; assay: c-Myc protein level in BT-549 cells; assay type: cell-based, human; settings: 25 µM
[4] = tested on: MCF-7, MDA-MB-468 and MDA-MB-231; assay: Cell viability assay; assay type: cell-based, human; settings: 72 hr, up to 50 µM
[5] = tested on: MDA-MB-231 cells; assay: Cell viability assay; assay type: cell-based, human; settings: read-out: IC50 cell viability; 72 hr
[6] = tested on: MCF-7 cells; assay: Cell cycle distribution and β-galactosidase senescence staining in MCF-7 cells; assay type: cell-based, human; settings: 25 µM
[7] = tested on: BT-549; assay: NCI-60 cell line screening, BT-549; assay type: cell-based, human; settings: 10 µM TM
[8] = biological target: T1, SIRT3 (Homo sapiens, UniProt Q9NTG7); assay: HPLC-based sirtuin inhibition assay, SIRT3; assay type: biochemical; settings: at 200 µM
T1 sequence (Q9NTG7 1-399): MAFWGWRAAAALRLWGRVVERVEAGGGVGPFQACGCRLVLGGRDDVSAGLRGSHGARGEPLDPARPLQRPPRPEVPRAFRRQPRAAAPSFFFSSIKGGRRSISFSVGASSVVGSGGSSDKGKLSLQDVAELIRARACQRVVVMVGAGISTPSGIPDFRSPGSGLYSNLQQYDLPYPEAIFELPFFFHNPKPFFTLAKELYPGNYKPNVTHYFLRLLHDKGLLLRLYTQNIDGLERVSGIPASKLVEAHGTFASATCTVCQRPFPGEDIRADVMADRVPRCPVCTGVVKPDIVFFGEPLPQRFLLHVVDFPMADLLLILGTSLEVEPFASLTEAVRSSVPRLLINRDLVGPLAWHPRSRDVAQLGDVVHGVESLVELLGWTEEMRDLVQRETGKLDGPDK

[9] = tested on: MCF-10A and HME1; assay: Cell viability assay; assay type: cell-based, human; settings: 72 hr, compared with malignant cells
[10] = Detection of TM in mouse serum, fat and tumor tissues by mass spectrometry; assay type: in vivo, mice; settings: IP administration
[11] = tested on: MDA-MB-231 human breast cancer xenograft; assay: MDA-MB-231 xenograft model in immunocompromised mice; assay type: in vivo
[12] = tested on: NCI-60 panel of human cancer cell lines; assay: NCI-60 cell line screening; assay type: cell-based; settings: single dose of 10 µM, 24 hr
[13] = tested on: c-Myc; assay: c-Myc protein level in MCF-7 cells; assay type: cell-based, human; settings: 25 µM
[14] = tested on: MCF-7 cells; assay: Soft agar colony formation assay; assay type: cell-based, human; settings: 25 µM in ethanol
[15] = 30 days treatment, compared with vehicle
[16] = 30 days treatment, relative to vehicle

SMILES: CC(C)C[C@@H](C=O)NC(=O)[C@H](CC(C)C)NC(=O)[C@H](CC(C)C)NC(=O)OCc1ccccc1 [MG132, reference compound] (Cbz-Leu-Leu-Leu-aldehyde)
- effect on TM-induced down-regulation of c-Myc ([1]; MCF-7 cells, TM 25 µM 4 hr then MG132 10 µM 2 hr): prevented the TM-induced down-regulation of c-Myc

SMILES: CCCCCCCCCCCCCC(=S)NCCCCC(NC(=O)OCc1ccccc1)C(=O)Nc1ccccc1 (centres unmarked) [TM]
- acetyl-α-tubulin level in tumors [2, 15]: modest but statistically significant increase
- proliferation of tumor cells by Ki-67 staining [2, 16]: significant decrease in proliferation of tumor cells
- mean latency to tumor onset ([2]; daily IP 1.5 mg TM in 50 µL DMSO, control group 48 days): 54 days
- tumor-free survival ([2]; daily IP 1.5 mg TM, compared with vehicle): significantly prolonged
- c-Myc protein abundance [3]: did not have a significant effect
- inhibition of cell viability [4]: greater inhibition of cell viability
- IC50 [5]: 34 µM
- cell cycle distribution ([6]; 0-72 hr, flow cytometry): pronounced increase in cells arrested in G0/G1 phase
- cellular senescence by β-galactosidase staining ([6]; 5 days): significant cellular senescence
- viability [7]: ~100%
- inhibition of SIRT3 [8]: did not inhibit
- sensitivity of cell viability to TM [9]: much less sensitive
- TM content in abdominal fat [10]: significant amount of TM accumulated in abdominal fat
- TM content in tumors [10]: reached the tumors
- body weight ([11]; 1.5 mg TM daily, 30 days): no significant weight loss
- toxicity in mice ([11]; 1.5 mg TM daily, 30 days): did not cause significant toxicity
- tumor growth ([11]; 1.5 mg TM in 50 µL DMSO daily, IT or IP, 30 days, versus vehicle): significantly inhibited tumor growth
- acetyl-α-tubulin level in xenograft tumors [11, 15]: moderately but statistically significantly increased
- Ki-67+ cells in tumors [11, 16]: significant decrease in Ki-67^+ cells
- cell lines inhibited by >50% [12]: 36/56
- c-Myc protein level [13]: decreased c-Myc protein level in a time-dependent manner
- anchorage-independent growth (soft agar colony formation) [14]: significantly inhibited
- NEDD4 expression ([1]; MCF-7 and K562 cells, 25 µM TM): up-regulated by TM at the transcriptional level
- half-life of c-Myc ([1]; MCF-7 cells, 25 µM 4 hr then CHX): shortened
- c-Myc mRNA level ([1]; MCF-7 cells, 25 µM, RT-PCR): not affected
